Experimental data taken from EP3046573B1, “AMYLIN ANALOGUES” (Zealand Pharma A/S, priority 2013, dated 2015).
Read-outs that look alike come from different tables or passages of the source. Numbered stars: 1 amine (or outer) side, 2 acyl side, 3 side chain; on linkers, the order of the positions; unused ones are H or OH. Bridge positions count the residues as written; N and C are the ends. Square brackets hold non-standard residues; d marks the D form. Peptide text beside a SMILES is read from it. * marks the point of attachment. C20 diacid = O=C(O)CCCCCCCCCCCCCCCCCCC(=O)*; γGlu = O=C(O)[C@H](CCC(=O)[*:2])N[*:1]; NMeI = CC[C@H](C)[C@H](NC)C(=O)O; Sar = CNCC(=O)O

Target: T1, human calcitonin receptor (hCTR2) (Homo sapiens, UniProt P30988)
T1 construct: expressed in transfected cells
T1 sequence (P30988 25-474): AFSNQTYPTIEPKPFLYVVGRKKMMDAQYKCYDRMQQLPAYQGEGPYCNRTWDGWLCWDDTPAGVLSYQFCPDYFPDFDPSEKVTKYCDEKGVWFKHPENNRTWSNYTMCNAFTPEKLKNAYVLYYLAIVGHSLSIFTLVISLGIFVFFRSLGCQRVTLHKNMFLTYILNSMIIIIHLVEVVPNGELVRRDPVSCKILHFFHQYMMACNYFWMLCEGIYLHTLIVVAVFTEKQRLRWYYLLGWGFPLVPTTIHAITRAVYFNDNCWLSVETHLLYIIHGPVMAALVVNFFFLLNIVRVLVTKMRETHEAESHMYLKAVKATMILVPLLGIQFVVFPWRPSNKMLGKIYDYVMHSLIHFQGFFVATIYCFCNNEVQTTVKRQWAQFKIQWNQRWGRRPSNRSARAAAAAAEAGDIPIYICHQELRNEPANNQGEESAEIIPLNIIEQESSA
Experiment: hCTR2 assay: induction of cAMP (AlphaScreen cAMP Assay kit) in COS7 cells expressing hCTR2
Assay type: cell-based
Excerpt: The cell line COS7, originating from African Green Monkey kidney fibroblast cells, was used for establishment of the stable cell lines described below. The COS7 cellular background was used due to it being RAMP naive, and as such it provides the best available system for testing of the monomeric hCTR and different heterodimeric amylin receptor subtypes functionally generated by introduction of the individual RAMPs.
A cell line expressing the human calcitonin receptor (hCTR2) was generated in the COS7 cellular background as stable clones. In brief, hCTR2 (GI: 4502547) was amplified by PCR using primers encoding terminal restriction sites for subcloning. The 5'-end primers additionally encoded a near Kozak consensus sequence to ensure efficient translation. The fidelity of the DNA encoding the receptor was confirmed by DNA sequencing. The PCR products encoding the receptor were subcloned into a mammalian expression vector containing a neomycin (G418) resistance marker. The mammalian expression vector encoding the receptor was transfected into COS7 cells by a standard liposome transfection method. 48 hours post-transfection, cells were seeded for limited dilution cloning and selected with 1 mg/ml G418 in the culture medium. After 3 weeks, surviving colonies of hCTR2-expressing cells were picked, propagated and tested in the amylin efficacy assay as described in Example 3 below. One hCTR2-expressing clone was chosen for compound profiling.
In vitro activity of test peptides at the hCTR2 and hAMYR3 receptors was assessed by measuring the induction of cAMP following stimulation of the receptor by pramlintide or peptides of the invention using the AlphaScreen® cAMP Assay kit from Perkin-Elmer.
Briefly, COS7 cells expressing hCTR2 (see Example 2, above) were seeded at 30-40,000 cells per well in 96-well microtiter plates coated with 0.01 % poly-L-lysine, and grown for 1 day in culture in 100 µl growth medium [DMEM, 10% FCS, Penicillin (100 IU/ml), Streptomycin (100 µg/ml)]. On the day of analysis, growth medium was removed and the cells were washed once with 200 µl Tyrode buffer [Tyrode's Salts (9.6 g/l), 10 mM HEPES, pH 7.4]. Cells were incubated in 100 µl Tyrode buffer containing increasing concentrations of test peptides, 100 µM IBMX and 0.1% casein for 15 min at 37° C. The reaction was stopped by carefully decanting off the compound/buffer medium and replacing it with lysis/detection buffer (80 µl 0.1 % w/v BSA, 5 mM HEPES, 0.3 % v/v Tween-20 in deionized water). After incubation at room temperature for 10 min., the cAMP content of the resulting cell lysate was estimated according to the AlphaScreen® cAMP Assay manufacturer's instructions. EC50 values and relative efficacy values (in %) compared to reference peptide (Pramlintide) were estimated by computer-aided curve fitting using the 4-parameter logistic (4PL) non-linear model.
The in vitro activity results (expressed as EC50 values) for peptides of the invention and for Pramlintide (reference peptide) are summarized in Table 2, below.

Row | EC50 (cAMP induction in COS7 cells expressing hCTR2, average of a minimum of 3 determinations, read-out: hCTR2 EC50) | SMILES | EC50
1 | – | CC[C@H](C)[C@@H](C(=O)N[C@@H](CC(C)C)C(=O)N[C@@H](CO)C(=O)N[C@@H](CO)C(=O)N[C@H](C(=O)N[C@@H](CC(N)=O)C(=O)N[C@H](C(=O)NCC(=O)N[C@@H](CO)C(=O)N[C@@H](CC(N)=O)C(=O)N[C@H](C(=O)N1CCC[C@H]1C(N)=O)[C@@H](C)O)C(C)C)[C@@H](C)O)N(C)C(=O)[C@H](C)NC(=O)CN(C)C(=O)[C@H](Cc1ccccc1)NC(=O)[C@H](CC(N)=O)NC(=O)[C@H](CC(N)=O)NC(=O)[C@H](CO)NC(=O)[C@H](CO)NC(=O)[C@@H](Cc1c[nH]cn1)NC(=O)[C@H](Cc1c[nH]cn1)NC(=O)[C@H](CC(C)C)NC(=O)[C@H](Cc1ccccc1)NC(=O)[C@H](CCC(=O)O)NC(=O)[C@H](C)NC(=O)[C@H](CC(C)C)NC(=O)[C@H](CCCNC(=N)N)NC(=O)[C@H](CCC(N)=O)NC(=O)[C@@H](NC(=O)[C@H](C)NC(=O)[C@@H]1CSSC[C@H](NC(=O)[C@H](CCCNC(=N)N)NC(=O)CC[C@H](NC(=O)CCCCCCCCCCCCCCCCCCC(=O)O)C(=O)O)C(=O)N[C@@H](CC(N)=O)C(=O)N[C@@H]([C@@H](C)O)C(=O)N[C@@H](C)C(=O)N[C@@H]([C@@H](C)O)C(=O)N1)[C@@H](C)O [Compound 12, [19CD]-isoGlu-RC()NTATC()ATQRLAEFLH-DHis-SSNNF-Gly(Me)-A-Ile(Me)-LSSTNVGSNTP-NH2] ({C20 diacid-γGlu}-RCNTATCATQRLAEFLH[dH]SSNNF[Sar]A[NMeI]LSSTNVGSNTP-NH2; disulfide 2-7) | 0.088 nM
2 | – | CC[C@H](C)[C@@H](C(=O)N[C@@H](CC(C)C)C(=O)N[C@@H](CO)C(=O)N[C@@H](CO)C(=O)N[C@H](C(=O)N[C@@H](CC(N)=O)C(=O)N[C@H](C(=O)NCC(=O)N[C@@H](CO)C(=O)N[C@@H](CC(N)=O)C(=O)N[C@H](C(=O)N1CCC[C@H]1C(N)=O)[C@@H](C)O)C(C)C)[C@@H](C)O)N(C)C(=O)[C@H](C)NC(=O)CN(C)C(=O)[C@@H](Cc1ccccc1)NC(=O)[C@H](CC(N)=O)NC(=O)[C@H](CC(N)=O)NC(=O)[C@H](CO)NC(=O)[C@H](CO)NC(=O)[C@H](Cc1c[nH]cn1)NC(=O)[C@H](Cc1c[nH]cn1)NC(=O)[C@H](CC(C)C)NC(=O)[C@H](Cc1ccccc1)NC(=O)[C@H](CCC(=O)O)NC(=O)[C@H](C)NC(=O)[C@H](CC(C)C)NC(=O)[C@H](CCCNC(=N)N)NC(=O)[C@H](CCC(N)=O)NC(=O)[C@@H](NC(=O)[C@H](C)NC(=O)[C@@H]1CSSC[C@H](NC(=O)[C@H](CCCNC(=N)N)NC(=O)CC[C@H](NC(=O)CCCCCCCCCCCCCCCCCCC(=O)O)C(=O)O)C(=O)N[C@@H](CC(N)=O)C(=O)N[C@@H]([C@@H](C)O)C(=O)N[C@@H](C)C(=O)N[C@@H]([C@@H](C)O)C(=O)N1)[C@@H](C)O [Compound 13, [19CD]-isoGlu-RC()NTATC()ATQRLAEFLHHSSNN-DPhe-Gly(Me)-A-Ile(Me)-LSSTNVGSNTP-NH2] ({C20 diacid-γGlu}-RCNTATCATQRLAEFLHHSSNN[dF][Sar]A[NMeI]LSSTNVGSNTP-NH2; disulfide 2-7) | 0.067 nM
3 | – | CC[C@H](C)[C@@H](C(=O)N[C@@H](CC(C)C)C(=O)N[C@@H](CO)C(=O)N[C@@H](CO)C(=O)N[C@H](C(=O)N[C@@H](CC(N)=O)C(=O)N[C@H](C(=O)NCC(=O)N[C@@H](CO)C(=O)N[C@@H](CC(N)=O)C(=O)N[C@H](C(=O)N1CCC[C@H]1C(N)=O)[C@@H](C)O)C(C)C)[C@@H](C)O)N(C)C(=O)[C@@H](C)NC(=O)CN(C)C(=O)[C@H](Cc1ccccc1)NC(=O)[C@H](CC(N)=O)NC(=O)[C@H](CC(N)=O)NC(=O)[C@H](CO)NC(=O)[C@H](CO)NC(=O)[C@H](Cc1c[nH]cn1)NC(=O)[C@H](Cc1c[nH]cn1)NC(=O)[C@H](CC(C)C)NC(=O)[C@H](Cc1ccccc1)NC(=O)[C@H](CCC(=O)O)NC(=O)[C@H](C)NC(=O)[C@H](CC(C)C)NC(=O)[C@H](CCCNC(=N)N)NC(=O)[C@H](CCC(N)=O)NC(=O)[C@@H](NC(=O)[C@H](C)NC(=O)[C@@H]1CSSC[C@H](NC(=O)[C@H](CCCNC(=N)N)NC(=O)CC[C@H](NC(=O)CCCCCCCCCCCCCCCCCCC(=O)O)C(=O)O)C(=O)N[C@@H](CC(N)=O)C(=O)N[C@@H]([C@@H](C)O)C(=O)N[C@@H](C)C(=O)N[C@@H]([C@@H](C)O)C(=O)N1)[C@@H](C)O [Compound 14, [19CD]-isoGlu-RC()NTATC()ATQRLAEFLHHSSNNF-Gly(Me)-DAla-Ile(Me)-LSSTNVGSNTP-NH2] ({C20 diacid-γGlu}-RCNTATCATQRLAEFLHHSSNNF[Sar][dA][NMeI]LSSTNVGSNTP-NH2; disulfide 2-7) | 0.21 nM
4 | – | CC[C@H](C)[C@@H](C(=O)N[C@H](CC(C)C)C(=O)N[C@@H](CO)C(=O)N[C@@H](CO)C(=O)N[C@H](C(=O)N[C@@H](CC(N)=O)C(=O)N[C@H](C(=O)NCC(=O)N[C@@H](CO)C(=O)N[C@@H](CC(N)=O)C(=O)N[C@H](C(=O)N1CCC[C@H]1C(N)=O)[C@@H](C)O)C(C)C)[C@@H](C)O)N(C)C(=O)[C@H](C)NC(=O)CN(C)C(=O)[C@H](Cc1ccccc1)NC(=O)[C@H](CC(N)=O)NC(=O)[C@H](CC(N)=O)NC(=O)[C@H](CO)NC(=O)[C@H](CO)NC(=O)[C@H](Cc1c[nH]cn1)NC(=O)[C@H](Cc1c[nH]cn1)NC(=O)[C@H](CC(C)C)NC(=O)[C@H](Cc1ccccc1)NC(=O)[C@H](CCC(=O)O)NC(=O)[C@H](C)NC(=O)[C@H](CC(C)C)NC(=O)[C@H](CCCNC(=N)N)NC(=O)[C@H](CCC(N)=O)NC(=O)[C@@H](NC(=O)[C@H](C)NC(=O)[C@@H]1CSSC[C@H](NC(=O)[C@H](CCCNC(=N)N)NC(=O)CC[C@H](NC(=O)CCCCCCCCCCCCCCCCCCC(=O)O)C(=O)O)C(=O)N[C@@H](CC(N)=O)C(=O)N[C@@H]([C@@H](C)O)C(=O)N[C@@H](C)C(=O)N[C@@H]([C@@H](C)O)C(=O)N1)[C@@H](C)O [Compound 15, [19CD]-isoGlu-RC()NTA TC()ATQRLAEFLHHSSNNF-Gly(Me)-A-Ile(Me)-DLeu-SSTNVGSNTP-NH2] ({C20 diacid-γGlu}-RCNTATCATQRLAEFLHHSSNNF[Sar]A[NMeI][dL]SSTNVGSNTP-NH2; disulfide 2-7) | 0.16 nM
5 | 0.076 nM | CC[C@H](C)[C@@H](C(=O)N[C@@H](CC(C)C)C(=O)N[C@@H](CO)C(=O)N[C@@H](CO)C(=O)N[C@H](C(=O)N[C@@H](CC(N)=O)C(=O)N[C@H](C(=O)NCC(=O)N[C@@H](CO)C(=O)N[C@@H](CC(N)=O)C(=O)N[C@H](C(=O)N1CCC[C@H]1C(N)=O)[C@@H](C)O)C(C)C)[C@@H](C)O)N(C)C(=O)[C@H](C)NC(=O)[C@H](C)NC(=O)[C@H](Cc1ccccc1)NC(=O)[C@H](CC(N)=O)NC(=O)[C@H](CC(N)=O)NC(=O)[C@H](CO)NC(=O)[C@H](CO)NC(=O)[C@H](Cc1c[nH]cn1)NC(=O)[C@H](Cc1c[nH]cn1)NC(=O)[C@H](CC(C)C)NC(=O)[C@H](Cc1ccccc1)NC(=O)[C@H](CCC(=O)O)NC(=O)[C@H](C)NC(=O)[C@H](CC(C)C)NC(=O)[C@H](CCCNC(=N)N)NC(=O)[C@H](CCC(N)=O)NC(=O)[C@@H](NC(=O)[C@H](C)NC(=O)[C@@H]1CSSC[C@H](NC(=O)[C@H](CCCNC(=N)N)NC(=O)CC[C@H](NC(=O)CCCCCCCCCCCCCCCCCCC(=O)O)C(=O)O)C(=O)N[C@@H](CC(N)=O)C(=O)N[C@@H]([C@@H](C)O)C(=O)N[C@@H](C)C(=O)N[C@@H]([C@@H](C)O)C(=O)N1)[C@@H](C)O [Compound 16, [19CD]-isoGlu-RC()NTATC()ATQRLAEFLHHSSNNFAA-Ile(Me)-LSSTNVGSNTP-NH2] ({C20 diacid-γGlu}-RCNTATCATQRLAEFLHHSSNNFAA[NMeI]LSSTNVGSNTP-NH2; disulfide 2-7) | –
